Reference: PubChem BioAssay AID328 (DTP/NCI, 2004)
Several values for one entry are separate records, joined by “and”; a condition that tells them apart may be missing. Equal values may be shown once. Toxic doses and inconclusive results are not listed.

Tested on: BDF1 mice, P388 leukemia ip, median survival T/C
Assay: NCI In Vivo Anticancer Drug Screen. Data for tumor model P388 Leukemia (intraperitoneal) in B6D2F1 (BDF1) mice
Conditions: endpoint: median survival time, higher = longer survival
Method in brief: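 Read-out is survival of treated animals expressed relative to the vehicle group, as a T/C ratio.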

[1] = dose: 25.0 mg/kg/injection, schedule: Q04DX003 (ip), vehicle: water
[2] = dose: 50.0 mg/kg/injection, schedule: Q04DX003 (ip), vehicle: water
[3] = dose: 100.0 mg/kg/injection, schedule: Q04DX003 (ip), vehicle: water
[4] = dose: 200.0 mg/kg/injection, schedule: Q04DX003 (ip), vehicle: water
[5] = dose: 100.0 mg/kg/injection, schedule: Q01DX009 (ip), vehicle: saline with Tween-80
[6] = dose: 100.0 mg/kg/injection, schedule: Q04DX003 (ip), vehicle: saline with Tween-80
[7] = dose: 200.0 mg/kg/injection, schedule: Q04DX003 (ip), vehicle: saline with Tween-80
[8] = dose: 6.25 mg/kg/injection, schedule: Q01DX009 (ip), vehicle: saline with Tween-80
[9] = dose: 12.5 mg/kg/injection, schedule: Q01DX009 (ip), vehicle: saline with Tween-80
[10] = dose: 200.0 mg/kg/injection, schedule: Q01DX009 (ip), vehicle: saline with Tween-80
[11] = dose: 400.0 mg/kg/injection, schedule: Q01DX009 (ip), vehicle: saline with Tween-80

## Nc1cc(OCc2ccccc2)cc(OCc2ccccc2)c1
dose: 6.25 mg/kg/injection, schedule: Q01DX009 (ip), vehicle: water
  T/C: 96 % of control
dose: 12.5 mg/kg/injection, schedule: Q01DX009 (ip), vehicle: water
  T/C: 96 % of control and 101 % of control
dose: 12.5 mg/kg/injection, schedule: Q04DX003 (ip), vehicle: water
  T/C: 105 % of control
dose: 25.0 mg/kg/injection, schedule: Q01DX009 (ip), vehicle: water
  T/C: 99 % of control and 105 % of control
[1]
  T/C: 99 % of control
dose: 50.0 mg/kg/injection, schedule: Q01DX009 (ip), vehicle: water
  T/C: 97 % of control and 98 % of control
[2]
  T/C: 99 % of control
dose: 100.0 mg/kg/injection, schedule: Q01DX009 (ip), vehicle: water
  T/C: 92 % of control and 100 % of control
[3]
  T/C: 106 % of control and 107 % of control and 108 % of control
[4]
  T/C: 95 % of control and 96 % of control

## C[Si](C)(C)Nc1ncnc2c1ncn2[Si](C)(C)C
[5]
  T/C: 91 % of control

## CCCCC(C(=O)OCC)C(CCC1CCCCC1)(C(=O)OCC)C(=O)OCC (stereo not drawn)
dose: 100.0 mg/kg/injection, schedule: Q04DX003 (ip), vehicle: Klucel (hydroxypropylcellulose) (HPC)
  T/C: 91 % of control
dose: 200.0 mg/kg/injection, schedule: Q04DX003 (ip), vehicle: Klucel (hydroxypropylcellulose) (HPC)
  T/C: 87 % of control
dose: 400.0 mg/kg/injection, schedule: Q04DX003 (ip), vehicle: Klucel (hydroxypropylcellulose) (HPC)
  T/C: 100 % of control

## CC(=O)N=C1C=C(NC(C)=O)C(=O)c2ncccc21
dose: 50.0 mg/kg/injection, schedule: Q04DX003 (ip), vehicle: saline with Tween-80
  T/C: 109 % of control
[6]
  T/C: 122 % of control
[7]
  T/C: 86 % of control

## CC(=O)c1ccc2ccccc2c1OC(=O)c1ccncc1
dose: 12.5 mg/kg/injection, schedule: Q01DX009 (ip), vehicle: other
  T/C: 99 % of control
dose: 25.0 mg/kg/injection, schedule: Q01DX009 (ip), vehicle: other
  T/C: 98 % of control
dose: 50.0 mg/kg/injection, schedule: Q01DX009 (ip), vehicle: other
  T/C: 107 % of control
dose: 100.0 mg/kg/injection, schedule: Q01DX009 (ip), vehicle: other
  T/C: 118 % of control
dose: 200.0 mg/kg/injection, schedule: Q01DX009 (ip), vehicle: other
  T/C: 107 % of control

## NC(=O)C(CO)NC(=O)OCc1ccccc1 (stereo not drawn)
[1]
  T/C: 110 % of control
[2]
  T/C: 103 % of control
[3]
  T/C: 100 % of control
[4]
  T/C: 100 % of control
dose: 400.0 mg/kg/injection, schedule: Q04DX003 (ip), vehicle: water
  T/C: 103 % of control

## COc1cc2c(cc1OC)[C@]13C[C@@H](OC)CC=C1CCN3CCC2
dose: 5.0 mg/kg/injection, schedule: Q01DX009 (ip), vehicle: alcohol
  T/C: 100 % of control
dose: 10.0 mg/kg/injection, schedule: Q01DX009 (ip), vehicle: alcohol
  T/C: 95 % of control
dose: 20.0 mg/kg/injection, schedule: Q01DX009 (ip), vehicle: alcohol
  T/C: 90 % of control
dose: 40.0 mg/kg/injection, schedule: Q01DX009 (ip), vehicle: alcohol
  T/C: 90 % of control

## COc1c(Br)cc(Br)cc1/C=C/[N+](=O)[O-]
[8]
  T/C: 114 % of control
[9]
  T/C: 114 % of control
dose: 25.0 mg/kg/injection, schedule: Q01DX009 (ip), vehicle: saline with Tween-80
  T/C: 116 % of control

## CCN(c1ccccc1)c1cc2c(cc1[N+](=O)[O-])no[n+]2[O-]
dose: 30.0 mg/kg/injection, schedule: Q01DX009 (ip), vehicle: saline with Tween-80
  T/C: 123 % of control
dose: 60.0 mg/kg/injection, schedule: Q01DX009 (ip), vehicle: saline with Tween-80
  T/C: 113 % of control

## C(=N\N=C\c1c[nH]c2ccccc12)/c1c[nH]c2ccccc12
dose: 100.0 mg/kg/injection, schedule: Q01DX009 (ip), vehicle: gum acacia
  T/C: 89 % of control
dose: 100.0 mg/kg/injection, schedule: Q04DX003 (ip), vehicle: gum acacia
  T/C: 108 % of control
dose: 200.0 mg/kg/injection, schedule: Q01DX009 (ip), vehicle: gum acacia
  T/C: 89 % of control
dose: 200.0 mg/kg/injection, schedule: Q04DX003 (ip), vehicle: gum acacia
  T/C: 95 % of control
dose: 400.0 mg/kg/injection, schedule: Q01DX009 (ip), vehicle: gum acacia
  T/C: 96 % of control
dose: 400.0 mg/kg/injection, schedule: Q04DX003 (ip), vehicle: gum acacia
  T/C: 100 % of control

## CCOC(=O)c1cnn(C(N)=O)c1N
[5]
  T/C: 115 % of control
[6]
  T/C: 110 % of control
[10]
  T/C: 90 % of control
[7]
  T/C: 115 % of control
[11]
  T/C: 109 % of control and 115 % of control
dose: 400.0 mg/kg/injection, schedule: Q04DX003 (ip), vehicle: saline with Tween-80
  T/C: 115 % of control

## O=C1N(Cl)C(=O)C(c2ccc(C(F)(F)F)cc2)(c2ccc(C(F)(F)F)cc2)N1Cl
dose: 1.56 mg/kg/injection, schedule: Q01DX009 (ip), vehicle: saline with Tween-80
  T/C: 104 % of control
dose: 3.12 mg/kg/injection, schedule: Q01DX009 (ip), vehicle: saline with Tween-80
  T/C: 100 % of control
[8]
  T/C: 100 % of control
[9]
  T/C: 109 % of control
[6]
  T/C: 100 % of control
[7]
  T/C: 109 % of control

## Cc1c2oc3c(C)ccc(C(=O)NC4C(=O)NC(C(C)C)C(=O)N5CCCC5C(=O)N(C)CC(=O)N(C)C(C(C)C)C(=O)OC4C)c3nc-2c(C(=O)NC2C(=O)NC(C(C)C)C(=O)N3CCCC3C(=O)N(C)CC(=O)N(C)C(C(C)C)C(=O)OC2C)c(NCCCO)c1=O (stereo not drawn)
dose: 0.05 mg/kg/injection, schedule: Q01DX009 (ip), vehicle: saline + alcohol
  T/C: 150 % of control
dose: 0.1 mg/kg/injection, schedule: Q01DX009 (ip), vehicle: saline + alcohol
  T/C: 172 % of control
dose: 0.2 mg/kg/injection, schedule: Q01DX009 (ip), vehicle: saline + alcohol
  T/C: 210 % of control
dose: 0.3 mg/kg/injection, schedule: Q04DX003 (ip), vehicle: saline + alcohol
  T/C: 169 % of control
dose: 0.4 mg/kg/injection, schedule: Q01DX009 (ip), vehicle: saline + alcohol
  T/C: 226 % of control
dose: 0.6 mg/kg/injection, schedule: Q04DX003 (ip), vehicle: saline + alcohol
  T/C: 191 % of control
dose: 0.8 mg/kg/injection, schedule: Q01DX001 (ip), vehicle: saline + alcohol
  T/C: 153 % of control
dose: 0.8 mg/kg/injection, schedule: Q01DX009 (ip), vehicle: saline + alcohol
  T/C: 285 % of control
dose: 1.2 mg/kg/injection, schedule: Q04DX003 (ip), vehicle: saline + alcohol
  T/C: 200 % of control
dose: 2.4 mg/kg/injection, schedule: Q04DX003 (ip), vehicle: saline + alcohol
  T/C: 261 % of control
dose: 3.2 mg/kg/injection, schedule: Q01DX001 (ip), vehicle: saline + alcohol
  T/C: 207 % of control
dose: 4.8 mg/kg/injection, schedule: Q04DX003 (ip), vehicle: saline + alcohol
  T/C: 248 % of control
dose: 6.4 mg/kg/injection, schedule: Q01DX001 (ip), vehicle: saline + alcohol
  T/C: 198 % of control

## CCN(CC)c1oc2ccc3ccccc3c2c(=O)c1Cl
dose: 50.0 mg/kg/injection, schedule: Q01DX009 (ip), vehicle: saline with Tween-80
  T/C: 97 % of control
[5]
  T/C: 94 % of control
[10]
  T/C: 92 % of control

## Cc1ccc(NCC(O)CN2CCN(CC(O)CNc3ccc(C)cc3)CC2)cc1 (stereo not drawn)
dose: 100.0 mg/kg/injection, schedule: Q01DX001 (ip), vehicle: Klucel (hydroxypropylcellulose) (HPC)
  T/C: 104 % of control
dose: 200.0 mg/kg/injection, schedule: Q01DX001 (ip), vehicle: Klucel (hydroxypropylcellulose) (HPC)
  T/C: 100 % of control
dose: 400.0 mg/kg/injection, schedule: Q01DX001 (ip), vehicle: Klucel (hydroxypropylcellulose) (HPC)
  T/C: 86 % of control

## C[C@@H]1C[C@H]2C(=CC1=O)CC[C@@H]1[C@@H]2CC[C@]2(C)[C@@H](O)CC[C@@H]12
[5]
  T/C: 100 % of control
[10]
  T/C: 109 % of control
[11]
  T/C: 109 % of control

## O=C(c1ccccc1)C1C(c2ccccc2)C2(CCCCC2=O)C(c2ccccc2)CC1(O)c1ccccc1 (stereo not drawn)
dose: 25.0 mg/kg/injection, schedule: Q01DX001 (ip), vehicle: Klucel (hydroxypropylcellulose) (HPC)
  T/C: 88 % of control

## COc1ccc2c(c1)-c1nn(CCO)c(-c3ccncc3)c1CC2
dose: 100.0 mg/kg/injection, schedule: Q04DX002 (ip), vehicle: DMSO
  T/C: 100 % of control
dose: 200.0 mg/kg/injection, schedule: Q04DX002 (ip), vehicle: DMSO
  T/C: 99 % of control
dose: 400.0 mg/kg/injection, schedule: Q04DX002 (ip), vehicle: DMSO
  T/C: 103 % of control

## O=[N+]([O-])c1ccccc1N/N=C\c1c(Cl)n(-c2ccccc2)c2ccccc12
dose: 100.0 mg/kg/injection, schedule: Q04DX002 (ip), vehicle: Klucel (hydroxypropylcellulose) (HPC)
  T/C: 90 % of control
dose: 200.0 mg/kg/injection, schedule: Q04DX002 (ip), vehicle: Klucel (hydroxypropylcellulose) (HPC)
  T/C: 99 % of control
dose: 400.0 mg/kg/injection, schedule: Q04DX002 (ip), vehicle: Klucel (hydroxypropylcellulose) (HPC)
  T/C: 115 % of control
